What was measured:
[1] = target: T1, ALK6/BMPR1B (Homo sapiens, UniProt O00238); assay: 375-member kinase panel; format: biochemical; conditions: Run 1, Run 2; for % enzyme activity: 1 μM; for remaining activity at 1 µM: read-out: % enzyme activity, 1 μM
T1 construct: purchased Reaction Biology Corporation

[2] = target: ZAK/MLTK (Homo sapiens, UniProt Q9NYL2); assay: 375-member kinase panel; format: biochemical; conditions: Run 1, Run 2; for % enzyme activity: 1 μM; for remaining activity at 1 µM: read-out: % enzyme activity, 1 μM
ZAK/MLTK, sequence (Q9NYL2 whole entry): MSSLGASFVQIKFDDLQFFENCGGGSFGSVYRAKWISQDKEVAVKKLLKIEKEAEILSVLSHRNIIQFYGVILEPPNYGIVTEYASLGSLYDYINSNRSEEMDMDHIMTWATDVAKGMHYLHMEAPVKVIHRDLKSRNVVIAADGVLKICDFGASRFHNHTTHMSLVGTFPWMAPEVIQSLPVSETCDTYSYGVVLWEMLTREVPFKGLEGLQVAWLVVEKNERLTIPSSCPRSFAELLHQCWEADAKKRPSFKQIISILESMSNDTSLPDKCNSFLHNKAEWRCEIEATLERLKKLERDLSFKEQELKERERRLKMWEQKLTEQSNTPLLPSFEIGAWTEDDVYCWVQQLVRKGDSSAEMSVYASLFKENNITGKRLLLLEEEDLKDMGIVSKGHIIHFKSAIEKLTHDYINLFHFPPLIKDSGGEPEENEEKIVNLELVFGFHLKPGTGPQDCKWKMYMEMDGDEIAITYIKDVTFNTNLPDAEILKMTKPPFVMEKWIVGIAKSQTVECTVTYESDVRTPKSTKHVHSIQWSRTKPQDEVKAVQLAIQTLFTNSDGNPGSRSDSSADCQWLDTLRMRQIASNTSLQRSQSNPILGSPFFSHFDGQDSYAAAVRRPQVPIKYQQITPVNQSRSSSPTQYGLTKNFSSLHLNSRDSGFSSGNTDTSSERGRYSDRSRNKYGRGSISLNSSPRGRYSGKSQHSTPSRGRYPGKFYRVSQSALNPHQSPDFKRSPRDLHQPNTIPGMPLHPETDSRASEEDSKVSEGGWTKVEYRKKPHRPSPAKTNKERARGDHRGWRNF

[3] = target: T2, EPHA1 (Homo sapiens, UniProt P21709); conditions: 1 μM; Run 1, Run 2
T2 sequence (P21709 26-976): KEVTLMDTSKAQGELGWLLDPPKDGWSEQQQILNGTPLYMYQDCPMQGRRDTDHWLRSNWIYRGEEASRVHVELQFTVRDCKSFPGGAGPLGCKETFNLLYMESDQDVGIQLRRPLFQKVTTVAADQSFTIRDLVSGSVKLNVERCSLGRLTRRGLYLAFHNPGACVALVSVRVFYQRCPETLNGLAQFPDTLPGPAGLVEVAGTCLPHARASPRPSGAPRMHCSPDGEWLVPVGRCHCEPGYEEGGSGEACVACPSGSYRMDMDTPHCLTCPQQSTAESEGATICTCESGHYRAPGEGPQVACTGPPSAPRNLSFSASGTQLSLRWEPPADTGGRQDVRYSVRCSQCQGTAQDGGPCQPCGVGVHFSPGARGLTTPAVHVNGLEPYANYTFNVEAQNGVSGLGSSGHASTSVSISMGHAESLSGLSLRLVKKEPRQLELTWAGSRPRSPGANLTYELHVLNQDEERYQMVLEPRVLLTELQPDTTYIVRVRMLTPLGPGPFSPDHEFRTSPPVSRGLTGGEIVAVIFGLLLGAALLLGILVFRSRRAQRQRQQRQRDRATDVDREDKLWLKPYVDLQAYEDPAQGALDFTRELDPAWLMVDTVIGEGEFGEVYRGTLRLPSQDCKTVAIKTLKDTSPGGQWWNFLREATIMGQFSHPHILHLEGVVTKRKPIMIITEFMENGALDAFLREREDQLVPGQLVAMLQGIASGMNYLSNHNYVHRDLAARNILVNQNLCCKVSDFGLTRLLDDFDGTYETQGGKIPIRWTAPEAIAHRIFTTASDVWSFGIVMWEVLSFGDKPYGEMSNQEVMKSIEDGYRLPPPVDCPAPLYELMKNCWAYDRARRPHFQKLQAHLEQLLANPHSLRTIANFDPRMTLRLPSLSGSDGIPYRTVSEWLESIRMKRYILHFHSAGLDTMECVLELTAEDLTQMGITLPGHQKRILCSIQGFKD

[4] = target: JNK3 (Homo sapiens, UniProt P53779); conditions: 1 μM; Run 1, Run 2
JNK3, sequence (P53779 whole entry): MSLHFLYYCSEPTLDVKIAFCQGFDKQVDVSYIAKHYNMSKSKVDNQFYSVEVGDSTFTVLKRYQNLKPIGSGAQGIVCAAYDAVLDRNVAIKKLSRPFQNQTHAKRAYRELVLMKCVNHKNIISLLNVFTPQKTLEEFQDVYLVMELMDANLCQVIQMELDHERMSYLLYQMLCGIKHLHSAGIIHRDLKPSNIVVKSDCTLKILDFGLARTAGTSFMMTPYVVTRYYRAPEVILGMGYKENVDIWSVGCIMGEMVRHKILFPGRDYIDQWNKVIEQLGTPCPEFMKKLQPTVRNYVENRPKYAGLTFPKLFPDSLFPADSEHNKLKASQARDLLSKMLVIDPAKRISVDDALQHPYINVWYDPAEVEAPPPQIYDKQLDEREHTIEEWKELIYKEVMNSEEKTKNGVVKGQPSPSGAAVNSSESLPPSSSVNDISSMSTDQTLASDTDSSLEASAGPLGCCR

[5] = target: NEK6 (Homo sapiens, UniProt Q9HC98); conditions: 1 μM; Run 1, Run 2
NEK6, sequence (Q9HC98 whole entry): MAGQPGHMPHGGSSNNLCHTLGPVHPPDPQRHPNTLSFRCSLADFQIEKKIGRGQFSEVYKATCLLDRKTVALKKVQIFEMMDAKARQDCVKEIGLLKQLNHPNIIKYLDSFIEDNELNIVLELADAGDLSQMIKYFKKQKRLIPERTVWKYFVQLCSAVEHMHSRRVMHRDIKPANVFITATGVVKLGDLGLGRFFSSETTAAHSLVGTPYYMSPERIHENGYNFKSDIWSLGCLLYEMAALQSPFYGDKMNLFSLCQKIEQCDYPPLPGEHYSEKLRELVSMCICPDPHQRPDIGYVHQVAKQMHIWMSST

[6] = target: T3, PKMYT1 (Homo sapiens, UniProt Q99640); conditions: 1 μM; Run 1, Run 2
T3 sequence (Q99640 1-499): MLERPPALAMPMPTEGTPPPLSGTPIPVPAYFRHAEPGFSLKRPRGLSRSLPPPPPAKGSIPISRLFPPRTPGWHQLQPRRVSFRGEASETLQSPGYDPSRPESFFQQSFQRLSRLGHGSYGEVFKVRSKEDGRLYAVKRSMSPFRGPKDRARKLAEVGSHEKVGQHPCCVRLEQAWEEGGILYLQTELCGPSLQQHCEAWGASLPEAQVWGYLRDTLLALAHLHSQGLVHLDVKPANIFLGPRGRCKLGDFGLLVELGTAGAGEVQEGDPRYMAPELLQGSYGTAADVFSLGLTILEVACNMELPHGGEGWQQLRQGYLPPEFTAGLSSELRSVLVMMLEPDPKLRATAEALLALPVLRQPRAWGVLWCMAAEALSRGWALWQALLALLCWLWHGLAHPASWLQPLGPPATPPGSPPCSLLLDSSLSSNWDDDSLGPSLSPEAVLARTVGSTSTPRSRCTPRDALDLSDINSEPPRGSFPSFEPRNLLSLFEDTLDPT

[7] = target: T4, SNARK/NUAK2 (Homo sapiens, UniProt Q9H093); conditions: 1 μM; Run 1, Run 2
T4 sequence (Q9H093 1-628): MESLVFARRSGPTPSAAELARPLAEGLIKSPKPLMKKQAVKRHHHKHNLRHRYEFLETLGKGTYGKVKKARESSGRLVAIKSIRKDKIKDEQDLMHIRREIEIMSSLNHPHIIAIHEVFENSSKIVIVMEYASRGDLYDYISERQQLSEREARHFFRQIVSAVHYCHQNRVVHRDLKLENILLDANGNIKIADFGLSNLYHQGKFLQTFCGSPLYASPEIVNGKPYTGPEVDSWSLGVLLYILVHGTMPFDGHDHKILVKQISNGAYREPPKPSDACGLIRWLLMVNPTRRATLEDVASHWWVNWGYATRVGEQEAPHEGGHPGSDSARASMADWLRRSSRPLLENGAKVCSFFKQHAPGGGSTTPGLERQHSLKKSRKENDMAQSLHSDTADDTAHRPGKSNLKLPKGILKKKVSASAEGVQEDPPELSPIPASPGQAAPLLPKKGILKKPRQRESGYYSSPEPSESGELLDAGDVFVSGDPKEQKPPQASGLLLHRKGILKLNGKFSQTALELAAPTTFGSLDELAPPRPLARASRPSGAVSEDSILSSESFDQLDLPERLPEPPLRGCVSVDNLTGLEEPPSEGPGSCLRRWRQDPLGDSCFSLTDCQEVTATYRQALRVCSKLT

[8] = target: KDR/VEGFR2 (Homo sapiens, UniProt P35968); assay: biochemical; conditions: read-out: % enzyme activity, 1 μM; Run 1, Run 2
KDR/VEGFR2, sequence (P35968 20-1356): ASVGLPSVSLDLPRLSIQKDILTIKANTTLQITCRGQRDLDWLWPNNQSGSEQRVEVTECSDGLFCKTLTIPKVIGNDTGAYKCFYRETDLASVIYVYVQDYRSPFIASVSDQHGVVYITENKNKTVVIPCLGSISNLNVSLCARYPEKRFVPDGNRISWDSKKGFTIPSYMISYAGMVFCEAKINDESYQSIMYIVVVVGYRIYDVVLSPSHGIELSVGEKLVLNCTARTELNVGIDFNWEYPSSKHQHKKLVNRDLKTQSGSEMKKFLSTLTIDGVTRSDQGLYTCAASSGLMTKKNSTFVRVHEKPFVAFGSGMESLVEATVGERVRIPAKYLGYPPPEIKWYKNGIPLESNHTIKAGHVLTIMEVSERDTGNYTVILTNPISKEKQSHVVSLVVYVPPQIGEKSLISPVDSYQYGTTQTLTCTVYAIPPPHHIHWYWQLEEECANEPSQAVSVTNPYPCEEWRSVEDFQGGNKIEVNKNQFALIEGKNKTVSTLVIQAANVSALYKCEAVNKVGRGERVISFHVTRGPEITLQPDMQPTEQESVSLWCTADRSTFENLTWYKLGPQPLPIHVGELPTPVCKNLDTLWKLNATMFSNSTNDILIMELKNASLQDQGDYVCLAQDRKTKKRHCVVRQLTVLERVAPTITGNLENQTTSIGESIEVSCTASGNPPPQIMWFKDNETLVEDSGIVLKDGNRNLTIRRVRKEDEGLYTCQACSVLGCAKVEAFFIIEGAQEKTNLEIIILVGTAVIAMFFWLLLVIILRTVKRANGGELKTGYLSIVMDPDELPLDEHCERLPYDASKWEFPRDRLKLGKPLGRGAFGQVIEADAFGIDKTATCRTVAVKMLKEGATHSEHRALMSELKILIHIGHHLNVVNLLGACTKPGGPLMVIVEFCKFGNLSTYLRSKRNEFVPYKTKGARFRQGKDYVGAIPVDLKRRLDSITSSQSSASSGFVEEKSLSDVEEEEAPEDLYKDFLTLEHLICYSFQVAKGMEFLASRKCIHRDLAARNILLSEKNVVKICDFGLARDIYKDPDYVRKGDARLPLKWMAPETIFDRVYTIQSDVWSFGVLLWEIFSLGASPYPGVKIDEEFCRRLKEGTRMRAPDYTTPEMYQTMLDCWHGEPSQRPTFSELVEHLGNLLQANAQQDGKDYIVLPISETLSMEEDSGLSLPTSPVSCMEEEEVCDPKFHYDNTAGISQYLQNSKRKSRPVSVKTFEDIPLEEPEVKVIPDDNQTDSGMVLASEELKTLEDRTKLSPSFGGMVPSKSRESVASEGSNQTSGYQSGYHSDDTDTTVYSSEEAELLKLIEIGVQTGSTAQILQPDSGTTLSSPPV

[9] = target: T5, P38g (Homo sapiens, UniProt P53778); assay: biochemical; conditions: read-out: % enzyme activity, 1 μM; Run 1, Run 2
T5 sequence (P53778 1-367): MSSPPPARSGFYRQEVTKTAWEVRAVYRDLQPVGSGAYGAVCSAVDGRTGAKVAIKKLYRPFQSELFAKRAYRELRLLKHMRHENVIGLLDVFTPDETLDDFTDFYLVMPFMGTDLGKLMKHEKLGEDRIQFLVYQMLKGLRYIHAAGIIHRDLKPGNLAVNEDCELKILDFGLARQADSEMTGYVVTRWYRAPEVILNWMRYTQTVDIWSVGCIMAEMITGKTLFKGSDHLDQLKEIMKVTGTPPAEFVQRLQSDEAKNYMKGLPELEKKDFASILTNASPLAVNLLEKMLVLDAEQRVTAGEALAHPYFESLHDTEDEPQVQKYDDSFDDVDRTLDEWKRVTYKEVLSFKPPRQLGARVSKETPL

[10] = target: TYK1/LTK (Homo sapiens, UniProt P29376); assay: biochemical; conditions: read-out: % enzyme activity, 1 μM; Run 1, Run 2
TYK1/LTK, sequence (P29376 17-864): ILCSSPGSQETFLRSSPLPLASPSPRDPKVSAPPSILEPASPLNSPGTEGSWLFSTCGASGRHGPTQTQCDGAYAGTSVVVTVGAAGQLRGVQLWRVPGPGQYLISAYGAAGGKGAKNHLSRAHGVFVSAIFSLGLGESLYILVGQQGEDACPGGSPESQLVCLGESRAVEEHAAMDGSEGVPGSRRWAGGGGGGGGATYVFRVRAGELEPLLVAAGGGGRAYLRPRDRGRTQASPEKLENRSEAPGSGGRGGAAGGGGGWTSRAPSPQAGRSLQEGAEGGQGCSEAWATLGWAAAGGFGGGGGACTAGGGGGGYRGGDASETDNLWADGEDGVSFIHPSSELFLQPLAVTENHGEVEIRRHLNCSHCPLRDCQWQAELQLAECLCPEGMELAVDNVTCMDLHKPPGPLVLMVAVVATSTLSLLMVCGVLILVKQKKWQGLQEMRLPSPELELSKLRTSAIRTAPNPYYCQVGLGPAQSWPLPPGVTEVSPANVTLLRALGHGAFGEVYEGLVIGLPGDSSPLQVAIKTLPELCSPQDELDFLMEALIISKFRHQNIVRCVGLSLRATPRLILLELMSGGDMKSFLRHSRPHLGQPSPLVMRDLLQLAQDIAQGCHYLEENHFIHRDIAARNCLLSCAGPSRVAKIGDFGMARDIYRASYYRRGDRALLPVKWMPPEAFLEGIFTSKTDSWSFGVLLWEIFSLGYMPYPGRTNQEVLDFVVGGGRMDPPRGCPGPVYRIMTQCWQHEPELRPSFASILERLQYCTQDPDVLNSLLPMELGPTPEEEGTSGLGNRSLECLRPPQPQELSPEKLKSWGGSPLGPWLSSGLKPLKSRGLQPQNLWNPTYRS

T1 sequence (O00238 14-502): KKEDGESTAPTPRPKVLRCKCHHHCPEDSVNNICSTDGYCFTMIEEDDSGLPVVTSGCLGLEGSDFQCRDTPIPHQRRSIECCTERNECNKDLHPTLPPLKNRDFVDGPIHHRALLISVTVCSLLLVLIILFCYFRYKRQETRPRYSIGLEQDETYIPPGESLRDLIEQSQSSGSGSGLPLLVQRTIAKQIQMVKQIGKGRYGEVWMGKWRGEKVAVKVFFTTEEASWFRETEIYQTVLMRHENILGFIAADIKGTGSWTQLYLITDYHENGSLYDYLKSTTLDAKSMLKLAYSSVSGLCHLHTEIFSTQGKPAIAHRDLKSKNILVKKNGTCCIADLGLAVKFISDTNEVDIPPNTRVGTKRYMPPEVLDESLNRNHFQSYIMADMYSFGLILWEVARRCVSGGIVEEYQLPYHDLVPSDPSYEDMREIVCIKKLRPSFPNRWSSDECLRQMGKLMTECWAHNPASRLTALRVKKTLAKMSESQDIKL

SMILES	% enzyme activity [1] [%]	remaining activity at 1 µM [1] [%]	% enzyme activity [2] [%]	remaining activity at 1 µM [2] [%]	% enzyme activity [3] [%]	% enzyme activity [4] [%]	% enzyme activity [5] [%]	% enzyme activity [6] [%]	% enzyme activity [7] [%]	remaining activity at 1 µM [8] [%]	remaining activity at 1 µM [9] [%]	remaining activity at 1 µM [10] [%]
COc1cc(-c2cncc(-c3ccc(N4CCN(C)CC4)cc3)c2C)cc(F)c1C(N)=O [Compound 26a, 2-Fluoro-6-methoxy-4-(4-methyl-5-(4-(4-methylpiperazin-1-yl)phenyl)pyridin-3-yl)benzamide]	17.03	18.2	30.86	31.3	96.36	93.66	98.81	100.09	93.71	95.9	110	99
COc1cc(-c2cncc(-c3ccc(N4C[C@@H](C)N(C)[C@@H](C)C4)cc3)c2C)cc(F)c1C(N)=O [Compound 26c, 2-Fluoro-6-methoxy-4-(4-methyl-5-(4-((3R,5S)-3,4,5-trimethylpiperazin-1-yl)phenyl)pyridin-3-yl)benzamide]	30.06	30.2	46.59	46.6	89.93	100.92	103.36	92.38	94.38	88.4	108	99.3
